Assay results reported in patent publication US5837479A, “Screening assays for inhibitors of mammalian prostaglandin H synthase-2” (priority 1995, dated 1998).
Where two headings read alike, the source gives them in different places.

Experiments:
[1] = test system: PGHS-2 expression, astrocytes; conditions: cultured murine and rat astrocytes; cited from earlier work
[2] = test system: COS cells; assay: toxicity to COS cells; type: cell-based, monkey; conditions: 800 μg/ml Geneticin (active component 657 μg/ml)
Protocol: Sixty-mm plates of 50% confluent COS-A2 (monkey-kidney) cells, which contain little or no cyclooxygenase activity were transfected with 1-2.5 μg of purified pRC/CMV;hPGHS-2 plasmid, pRC/CMV;hPGHS-1 plasmid or the PRC/CMV vector alone by a calcium phosphate precipitation method (Chen et al., 1987, Mol. Cell. Biol., 7:2745-2752. Plates were incubated at 35° C., 3% CO2 for 24 hr in normal media (Dulbecco's modified Eagle Media (DMEM)+10% fetal bovine serum). After two rinses with warm DMEM, plates were transferred to 37° C., 5% CO2 for an additional 24 hr. Selection was then started with normal media containing 800 μg/ml of Geneticin (active component G418, 657 μg/ml, Life Technologies), a concentration which is toxic for COS cells. […] Twelve to twenty-four colonies from each transfection were isolated using cloning cylinders. The majority of these survived continued G418 selection during clonal cell-line expansion.

[3] = test system: cystic fibrosis lung disease; conditions: high-dose, cystic fibrosis patients; cited from earlier work
[4] = test system: 4-kb mRNA (PGHS-2); assay: level of 4-kb PGHS-2 mRNA in C127 mouse fibroblasts; type: cell-based; conditions: C127 cells
Source text: Three of four potential N-glycosylation sites are conserved between the two molecules and there is particularly high similarity in the regions surrounding a putative axial heme-binding domain (amino acids 273-342) and the region around the presumed aspirin modified-serine^516 (amino acids 504-550). By far the largest difference in the two cDNAs is the presence of a 2.1 kb 3' untranslated region in the 4.1 kb cDNA. This region is rich in 5'-AUUUA-3' motifs that are associated with the decreased stability of many cytokine and protooncogene mRNAs. The presence of these motifs is consistent with the profound superinducibility of the 4.1 kb mRNA by cycloheximide, which is not observed for the 2.8 kb mRNA.

[5] = test system: griPGHS mRNA (4.8-kb mRNA), human monocytes; type: cell-based; conditions: for griPGHS mRNA increase relative to control: IL-1β 10 half-maximal units
Protocol: (§1) FIGS. 3A-3B are a photographic depiction of autoradiographies obtained by Northern blotting monitoring the expression of the genes encoding griPGHS and the constitutive PGHS-1, as expressed in human monocytes, in response to interleukin-1 treatment, a known mediator of inflammation. Adherent human monocytes isolated from healthy donors were suspended in medium without serum at 1×10^6 cells/ml. One ml aliquots in 5 ml polypropylene tubes were incubated with loosened caps in 5% CO2 at 37° C. with occasional shaking. FIGS. 3A-3B are more fully described as follows:
(§2) Five μg was subjected to Northern blot analysis with the indicated probes.
(§3) Cycloheximide (25 μM) was added to one set of incubations 15 min prior to he addition of cytokine or hormone.
(§4) Poly-A enriched RNAs (2.5 μg) from C127 cells were fractionated by formaldehyde-agarose gel electrophoresis and transferred to a membrane (Duralon, Stratagene). Hybridization was carried out as previously described by O'Banion et al., 1991, J. Virol., 65:3481-3488, using the 5' 1.2 kb EcoR1 fragment of the 4.1 kb cDNA labeled with ^32 P by random priming as disclosed by Feinberg et al., 1983, Anal. Biochem., 132:6-13. The membrane was later rehybridized with a similarly labeled portion (1.6 kb 5' end) of the 2.8 kb ovine PGHS cDNA (Oxford Biomedical Research, Inc.), and an end-labeled 40-mer complimentary to β-tubulin (Oncor). RNA molecular weight markers (Life Technologies) were visualized by ethidium bromide staining. A similar analysis was performed on total RNA (5 µg/lane) isolated from human monocytes by the guanidinium-acid-phenolextraction method of Chomczynski et al., 1987, Anal. Biochem., 162:156-159.
(§5) Adherent human monocytes isolated from healthy donors as described by Roberts et al., 1978, J. Immunol, 121:1052-1058, were suspended in M199 medium without serum at 1×10^6 cells/ml. One ml aliquots in 5 ml polypropylene tubes were incubated with loosened caps in 5% CO2 at 37° C. with occasional shaking. […] Five μg RNA was subjected to Northern blot analysis as described by O'Banion et al., 1991, J. Biol. Chem., 34:23261-23267 with the indicated probes labeled by random priming (kit from Boehringer-Mannheim) to a specific activity >1×10^9 cpm/μg. […] Cycloheximide (25 μM; Sigma) was added to one set of incubations 15 min prior to the addition of cytokine or hormone.

[6] = test system: 2.8-kb PGHS mRNA (PGHS-1), human monocytes; type: cell-based
Protocol: as §1, §2, §3, §4, §5

[7] = test system: 2.8-kb mRNA encoding PGHS-1; assay: level of 2.8-kb PGHS-1 mRNA in C127 mouse fibroblasts; type: cell-based; conditions: C127 cells
[8] = test system: C127 mouse fibroblasts (protein synthesis); assay: inhibition of protein synthesis in C127 mouse fibroblasts; type: cell-based; conditions: C127, 0.25 h, within 15 min
Source text: C127 mouse fibroblasts were obtained from Peter Howley (NIH) and propagated in high glucose Dulbecco's modified Eagle's medium supplemented with 10% fetal bovine serum (HyClone Laboratories) without antibiotics. See, Lowy et al., 1978, J. Virol., 26:291-298. Cultures were monitored for mycoplasma contamination by Hoechst 33258 staining in accord with the procedure of Chen, 1977, Exp. Cell Res., 104:255-262.
Exponentially growing, subconfluent (60-80%) cell monolayers (35-mm plates) were labeled in Dulbecco's modified Eagle's medium without methionine (Life Technologies) plus 200 μCi/ml Tran^35 S-label (>1,000 Ci/mmol; ICN) for 15 or 30 min. In some cases, fresh fetal calf serum (10%) was present during the labeling period. Monolayers were rinsed twice with ice-cold Dulbecco's modified Eagle's medium (DMEM) with methionine prior to lysis in 200 μl of A8 buffer (9.5M urea, 2% (w/v) Nonidet P-40, 2% (w/v) ampholines (LKB, 1.6% pH range 5-8, 04. % pH range 3.5-10), 5% (w/v) 2-mercaptoethanol). Incorporation of label into proteins was determined by trichloroacetic acid precipitation. […] The calcium ionophore A23187 (Calbiochem) was used at a concentration of 5 μM from a 2.5 mM stock in ethanol. Cycloheximide (Sigma) was used at a concentration of 25 μM from a 100 X stock in water. This level inhibited protein synthesis by >97% within 15 min. […]

[9] = test system: human PGHS-2 (versus human PGHS-1); assay: NSAID inhibition of human PGHS-2 activity in stably transformed COS cells (4B4), compared with human PGHS-1 cells (H17A5); type: cell-based; conditions: 30 min preincubation, 15 min arachidonic acid; FIGS. 8A-8D and 9A-9D
Protocol: PGHS-1 and PGHS-2 cell lines (including 4B4 and H17A5) were exposed to various concentrations of NSAID for 30 min in serum-free DMEM. […] Controls consisted of no drug treatment and cells treated with the maximal concentrations of drug vehicles (1% methanol or ethanol). […] Cyclooxygenase activity was determined as described herein above.

[10] = test system: colorectal carcinoma; conditions: several clinical trials; cited from earlier work
[11] = test system: 72-74 kDa protein doublet, BALB/c 3T3 fibroblasts; conditions: cited from earlier work
[12] = test system: preterm labor; conditions: in vivo; cited from earlier work
[13] = test system: familial polyposis (colon polyps); conditions: patients with familial polyposis; cited from earlier work

Compound: TNFα
- regulation of PGHS-2 expression in astrocytes [1]: strongly up-regulated
- time of peak PGHS-2 mRNA level [1]: 2 h

Compound: CN[C@@H]1[C@@H](O)[C@@H](O[C@@H]2[C@@H](O)[C@H](O[C@H]3O[C@H]([C@@H](C)O)[C@@H](O)[C@H](O)[C@H]3N)[C@@H](N)C[C@H]2N)OC[C@]1(C)O [G418]
- toxicity for COS cells [2]: toxic

Compound: CC(C)Cc1ccc(C(C)C(=O)O)cc1 (stereo not shown) [ibuprofen]
- progression of lung disease [3]: slows the progression of lung disease

Compound: C[C@@H]1C[C@@H]([C@H](O)CC2CC(=O)NC(=O)C2)C(=O)[C@@H](C)C1 [cycloheximide]
- accumulation of 4-kb mRNA [4]: accumulates to significant levels
- superinduction of 4.8-kb mRNA ([5]; cycloheximide 25 μM, added 15 min before cytokine or hormone): superinduction of the 4.8-kb mRNA was clearly evident
- levels of 2.8-kb mRNA relative to β-tubulin ([6]; IL-1β, dexamethasone or cycloheximide treatment): not significantly altered
- change in 2.8-kb PGHS-1 mRNA level [7]: no change
- inhibition at 25 µM [8]: > 97%

Compound: CC(=O)Oc1ccccc1C(=O)O [aspirin]
- levels of drug required for inhibition, PGHS-1 versus PGHS-2 cells [9]: different for the cells expressing PGHS-1 versus those expressing PGHS-2
- colon tumor growth and death [10]: decreased colon tumor growth and death

Compound: C[C@@H]1C[C@H]2[C@@H]3CCC4=CC(=O)C=C[C@]4(C)[C@@]3(F)[C@@H](O)C[C@]2(C)[C@@]1(O)C(=O)CO [dexamethasone]
- level of 2.8-kb PGHS mRNA ([6]; 4 hr, normalized to β-tubulin): not affected
- change in 2.8-kb PGHS-1 mRNA level [7]: no change

Compound: platelet-derived growth factor
- synthesis of 72-74 kDa protein doublet [11]: transiently increased

Compound: IL-1β: IL-1β (10 half-maximal units, Collaborative Research), a known mediator of inflammation
- griPGHS mRNA increase relative to control ([5]; 4 hr): 2.5 fold
- griPGHS mRNA increase relative to control ([5]; 12 hr): 14 fold
- levels of 2.8-kb mRNA relative to β-tubulin [6]: not significantly altered
- regulation of PGHS-2 expression in astrocytes [1]: strongly up-regulated
- time of peak PGHS-2 mRNA level [1]: 2 h

Compound: COc1ccc2c(c1)c(CC(=O)O)c(C)n2C(=O)c1ccc(Cl)cc1 [indomethacin]
- levels of drug required for inhibition, PGHS-1 versus PGHS-2 cells [9]: different for the cells expressing PGHS-1 versus those expressing PGHS-2
- premature closure of the ductus arteriosus of the fetus [12]: raises concern with premature closure of the ductus arteriosus

Compound: CC1=C(CC(=O)O)c2cc(F)ccc2/C1=C\c1ccc([S+](C)[O-])cc1 (stereo not shown) [Sulindac]
- colon polyp regression [13]: colon polyp regression
